Data on one molecule can be found in US6821988B2, “3-cyanoquinolines as inhibitors of EGF-R and HER2 kinases” (Wyeth Holdings Corporation, priority 2001, dated 2004).

In assay [1] the target is T1, human HER2 cytoplasmic domain (HER2-CD, amino acid 676-1255) (Homo sapiens, UniProt P04626).
T1 construct: human HER2 cytoplasmic domain (HER2-CD, amino acid 676-1255); made in house; host or cells: Sf-9 insect cells, baculovirus (pBlueBacHis2B)
Kind of assay: Inhibition of HER2 kinase autophosphorylation, recombinant enzyme, DELFIA/time-resolved fluorometry. It is filed as biochemical. How it is done:
(§1) A 1.7 kb cDNA encoding human HER2 cytoplasmic domain (HER2-CD, amino acid 676-1255) and 1.6 kb cDNA for EGFR cytoplasmic domain (EGFR-CD, amino acid 645-1186) were cloned into baculoviral expression vectors, pBlueBacHis2B (Invitrogen) and pFASTBacHTc (GIBCO), separately. A sequence encoding (His)6 is located at the 5′ end upstream to HER2 and EGFR sequences. Sf-9 cells were infected at moi=10 for 3 days for protein expression. Sf-9 cell pellets were solubilized on ice in buffer containing 50 mM HEPES, pH 7.4, 10 mM NaCl, 1% Triton, 10 μM ammonium molybdate, 100 μM sodium vanadate, 10 μg/ml aprotinin, 10 μg/ml leupeptin, 10 μg/ml pepstatin, and 16 ug/ml benzamidine HCl for 20 min followed by 20 min centrifugation. Crude extract supernatant was passed through equilibrated Ni-NTA superflow packed column (Qiagen, Valencia, Calif.) and wash with 10 mM, and 100 mM imidazole to remove unspecific binding. Histidine-tagged proteins were eluted with 250 mM and 500 mM imidazole and dialyzed against 50 mM NaCl, 20 mM HEPES, 10% glycerol and 1 μg/ml each of aprotinin, leupeptin and pepstatin for 2 h. All the purification procedure was performed at 4° C. or on ice. Purified materials were subjected for electrophoresis followed by Coommassie blue stain to determine the purity of the preparation and Western blot for the identity of protein. Enzymes were aliquoted and stored at −80° C.
(§2) Inhibition of EGFR and HER2 kinase autophosphorylation was measured by a DELFIA/time-resolved fluorometry assay. Compounds were dissolved in 100% DMSO and diluted to the appropriate concentrations with 25 mM HEPES, pH 7.4. In each well, 10 μl of compound was incubated with 10 μl of recombinant EGF-R or HER2 enzyme (1:80 dilution in 100 mM HEPES) for 10 min at room temperature. Then, 10 μl of 5×buffer (containing 20 mM HEPES, 2 mM MnCl2, 100 uM Na3VO4 and 1 mM DTT) and 20 μl of 0.1 mM ATP/50 mM MgCl2 was added for 1 h. Positive and negative controls were included in each plate by incubation of enzyme with or without ATP/MgCl2. At the end of incubation, liquid was aspirated and washed three times with wash buffer. 75 μl (400 ng).of europium-labeled anti-phosphotyrosine antibody was added to each well for another hour of incubation. After wash, enhancement solution was added and the signal was detected by Victor (Wallac Inc) with excitation at the wavelength of 340 nm and emission at the wavelength of 615 nm. All reagents were supplied by Wallac Inc (Wallac/Perkin-Elimer). Percentage of autophosphorylation inhibition by compound was calculated by […]. IC50 values were obtained from curves of percentage inhibition with 8 doses of compound.

Assay [2] deals with T2, EGFR cytoplasmic domain (EGFR-CD, amino acid 645-1186) (Homo sapiens, UniProt P00533).
T2 construct: EGFR cytoplasmic domain (EGFR-CD, amino acid 645-1186); made in house; host or cells: Sf-9 insect cells, baculovirus (pFASTBacHTc)
T2 sequence (P00533 669-1210): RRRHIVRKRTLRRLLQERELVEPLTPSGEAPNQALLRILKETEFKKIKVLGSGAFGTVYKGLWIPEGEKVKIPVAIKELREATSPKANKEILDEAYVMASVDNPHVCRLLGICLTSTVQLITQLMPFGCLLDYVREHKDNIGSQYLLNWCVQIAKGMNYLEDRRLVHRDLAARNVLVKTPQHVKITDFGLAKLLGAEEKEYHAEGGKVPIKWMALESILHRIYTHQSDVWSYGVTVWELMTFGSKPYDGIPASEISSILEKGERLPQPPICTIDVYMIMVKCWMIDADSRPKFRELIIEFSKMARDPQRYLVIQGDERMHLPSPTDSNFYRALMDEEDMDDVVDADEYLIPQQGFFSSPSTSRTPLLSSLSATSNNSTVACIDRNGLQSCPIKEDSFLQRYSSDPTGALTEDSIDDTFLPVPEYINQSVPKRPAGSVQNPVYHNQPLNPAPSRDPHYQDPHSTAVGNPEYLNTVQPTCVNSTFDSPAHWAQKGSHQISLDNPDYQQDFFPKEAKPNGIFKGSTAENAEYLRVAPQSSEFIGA
Description: Inhibition of EGF-R kinase autophosphorylation, recombinant enzyme, DELFIA/time-resolved fluorometry. It is filed as biochemical. Here is the method: as §1, §2

In assay [3] the test system is A431 (epidermoid carcinoma). Description: Inhibition of cancer cell growth, sulforhodamine B assay, A431. The following applies: A431, 2 days. It counts as cell-based, human. Here is the method:
(§3) […], A431 (epidermoid carcinoma), SKBR3 (breast carcinoma), SW620 (colon carcinoma), and MDA-MB435 (breast carcinoma), BT474 (breast carcinoma), and two murine lines, 3T3 (murine fiboblasts) and HER2-3T3 (murine fiboblasts transfected with human HER2) were used for cell proliferation assays. Cells were maintained in RPMI -1640 medium supplemented with 5% fetal bovine serum. Cells were plated in 96-well plates at the densities of 2.5×10^4/ml for 3T3 and 3T3/HER2 and 5.0×10^4/ml for the rest of the cell lines. On the next day, compounds were dosed at 0.5, 5, 50, 500, and 5000 ng/ml and cultured for 2 days. At the end of incubation, cell survival was determined by the sulforhodamine B assay as previously described (Skehan, P; Stornet, R.; Scudiero, D.; Monks, A.; McMahon, J.; Vistica D., Warren, J.; Bokbosch, H.; Kenny, S.; Boyd, M. New Colorimetric Cytotoxic Assay for Anticancer-Drug Screening. J. Natl. Cancer Inst. 1990, 82, 1107-1112). The IC50 values (the concentration needed to inhibit cell growth by 50%) were obtained from the growth curves and are shown below in Table 2 where the results of multiple determinations are included.

Assay [4] relates to 3T3 (murine fiboblasts). Description: Inhibition of cell growth, sulforhodamine B assay, 3T3. It is filed as cell-based. The following applies: 3T3, 2 days. How it is done:
as §3

Assay [5] has as its system HER2-3T3 (murine fiboblasts transfected with human HER2). Kind of assay: Inhibition of cell growth, sulforhodamine B assay, HER2-3T3. The following applies: HER2-3T3, 2 days. It is filed as cell-based. Here is the method:
as §3

Assay [6] concerns BT474 (breast carcinoma). Kind of assay: Inhibition of cancer cell growth, sulforhodamine B assay, BT474. It counts as cell-based. The following applies: Homo sapiens, BT-474, 48 h; BT474, 2 days; read-out: Inhibition of Cancer Cell Growth in vitro IC50, BT474. Here is the method: as §3

In brackets after ≈: the same amount, converted by molar mass. Several values for one entry are separate records, joined by “and”; a condition that tells them apart may be missing. Identical values can stand only once.

T1 sequence (P04626 676-1255): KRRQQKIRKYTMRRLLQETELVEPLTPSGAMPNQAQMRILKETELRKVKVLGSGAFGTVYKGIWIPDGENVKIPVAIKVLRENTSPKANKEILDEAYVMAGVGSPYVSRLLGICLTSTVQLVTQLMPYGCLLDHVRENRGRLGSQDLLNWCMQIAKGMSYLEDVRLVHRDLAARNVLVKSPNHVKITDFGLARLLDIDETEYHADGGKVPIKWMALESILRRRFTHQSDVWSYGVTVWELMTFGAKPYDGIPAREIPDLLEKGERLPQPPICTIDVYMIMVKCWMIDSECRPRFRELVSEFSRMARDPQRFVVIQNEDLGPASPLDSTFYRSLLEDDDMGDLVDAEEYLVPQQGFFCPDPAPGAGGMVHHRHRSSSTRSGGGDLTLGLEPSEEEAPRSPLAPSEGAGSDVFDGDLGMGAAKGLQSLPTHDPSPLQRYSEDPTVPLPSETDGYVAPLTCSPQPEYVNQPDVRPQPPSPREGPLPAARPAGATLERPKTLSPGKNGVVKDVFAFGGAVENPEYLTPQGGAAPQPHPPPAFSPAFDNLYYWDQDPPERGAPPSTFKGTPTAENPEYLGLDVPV

By IC50 is commonly meant the concentration that inhibits the measured activity by half. As for `COc1cc2ncc(C#N)c(Nc3ccc(Sc4nc(-c5ccccc5)cs4)c(Cl)c3)c2cc1NC(=O)CC(CN(C)C)N(C)C` (stereo not shown) [Example 1], the inhibition at 2 µg/mL in assay [1] (read-out: HER2 % Inhibition at 2 μg/mL) worked out at 63%. Further, the IC50 is 1.32 µM and 0.787 µM in assay [1] (recombinant HER2 autophosphorylation); 4.76 µM in assay [2]; 0.242 µg/mL (≈ 0.36 µM) in assay [3] (Homo sapiens, A-431, 48 h, read-out: Inhibition of Cancer Cell Growth in vitro IC50, A431); 0.76 µg/mL (≈ 1.13 µM) in assay [4] (Mus musculus, 48 h, read-out: Inhibition of Cancer Cell Growth in vitro IC50, 3T3); 0.041 µg/mL (≈ 0.061 µM) in assay [5] (Mus musculus, 48 h, read-out: Inhibition of Cancer Cell Growth in vitro IC50, HER2-3T3); 0.02 µg/mL (≈ 0.0297 µM) in assay [6]. Also, in assay [3], the “Inhibition of Cancer Cell Growth in vitro IC50, A431” value is 0.37 µg/mL and 0.28 µg/mL. In addition, the “Inhibition of Cancer Cell Growth in vitro IC50, 3T3” value in assay [4] is 0.7 µg/mL and 0.57 µg/mL. In assay [5], the “Inhibition of Cancer Cell Growth in vitro IC50, HER2-3T3” value was 0.04 µg/mL and 0.03 µg/mL.
